Reference: patent US10052306B2 (LUC THERAPEUTICS, INC., priority 2013, dated 2018)

Molecular target: NR1/NR2B (Homo sapiens (Human), UniProt Q05586+Q13224)
Assay: Cell assay: FDSS Ca2+ influx inhibition in HEK293 cells expressing NR1/NR2B;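 further: Fluo-8 Ca2+ signal read on Hamamatsu FDSS 6000 after glutamate, glycine and Ca2+ challenge following 10 min compound preincubation, end/baseline fluorescence ratio compared with MK801 control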
[1] = NR2B NAM IC50, HEK293 cells expressing NR1/NR2B, Ca2+ influx
[2] = Binned Activity, HEK293 cells expressing NR1/NR2B, Ca2+ influx, binned NR2B NAM IC50

NR1/NR2B, sequence (Q13224 27-1484, other chains not shown): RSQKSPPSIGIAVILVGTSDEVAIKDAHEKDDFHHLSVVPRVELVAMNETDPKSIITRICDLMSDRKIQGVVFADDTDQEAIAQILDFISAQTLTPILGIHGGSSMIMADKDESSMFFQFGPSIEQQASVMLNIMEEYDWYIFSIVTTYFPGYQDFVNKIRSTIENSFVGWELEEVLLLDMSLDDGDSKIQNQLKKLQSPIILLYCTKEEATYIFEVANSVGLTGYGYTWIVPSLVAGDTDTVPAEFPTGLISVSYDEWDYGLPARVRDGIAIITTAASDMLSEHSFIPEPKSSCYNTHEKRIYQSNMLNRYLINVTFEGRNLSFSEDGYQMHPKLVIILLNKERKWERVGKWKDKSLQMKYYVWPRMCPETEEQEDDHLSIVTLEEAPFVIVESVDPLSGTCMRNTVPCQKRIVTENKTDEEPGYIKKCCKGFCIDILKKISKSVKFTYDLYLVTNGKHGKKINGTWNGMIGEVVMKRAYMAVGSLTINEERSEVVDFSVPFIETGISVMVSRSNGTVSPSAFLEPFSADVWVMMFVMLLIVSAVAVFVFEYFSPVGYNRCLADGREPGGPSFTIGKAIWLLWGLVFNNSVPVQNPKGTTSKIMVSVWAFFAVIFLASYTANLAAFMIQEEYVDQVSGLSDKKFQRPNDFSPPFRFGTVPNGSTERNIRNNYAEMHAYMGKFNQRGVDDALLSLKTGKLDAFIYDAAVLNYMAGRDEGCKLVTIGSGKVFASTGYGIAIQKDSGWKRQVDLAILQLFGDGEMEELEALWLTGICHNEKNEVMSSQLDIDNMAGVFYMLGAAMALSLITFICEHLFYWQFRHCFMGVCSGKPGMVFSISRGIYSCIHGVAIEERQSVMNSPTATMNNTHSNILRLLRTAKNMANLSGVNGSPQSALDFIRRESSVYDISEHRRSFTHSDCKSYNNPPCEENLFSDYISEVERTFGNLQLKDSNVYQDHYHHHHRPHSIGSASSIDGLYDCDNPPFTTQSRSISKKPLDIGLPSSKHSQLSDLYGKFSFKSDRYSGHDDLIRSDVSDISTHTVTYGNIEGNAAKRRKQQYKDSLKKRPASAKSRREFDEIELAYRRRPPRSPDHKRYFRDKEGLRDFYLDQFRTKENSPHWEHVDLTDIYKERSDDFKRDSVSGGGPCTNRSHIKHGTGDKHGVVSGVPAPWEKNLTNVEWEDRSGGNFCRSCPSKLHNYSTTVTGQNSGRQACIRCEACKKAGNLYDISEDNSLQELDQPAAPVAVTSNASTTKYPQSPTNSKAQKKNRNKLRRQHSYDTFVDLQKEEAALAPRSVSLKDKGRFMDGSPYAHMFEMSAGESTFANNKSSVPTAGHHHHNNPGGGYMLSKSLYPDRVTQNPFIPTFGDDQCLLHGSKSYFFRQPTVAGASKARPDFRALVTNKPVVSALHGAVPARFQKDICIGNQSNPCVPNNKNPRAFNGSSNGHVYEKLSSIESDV

SMILES	IC50 [1] [nM]	IC50 [2] [nM]	IC50 (Binned Activity) [nM]	IC50 (NR2B NAM IC50) [nM]
Oc1ccc(C(O)CN2C[C@@H]3C[C@@](O)(Cc4ccncc4)C[C@@H]3C2)cc1 (mixture of isomers) [Example 227, rac-(3aR,5r,6aS)-2-(2-hydroxy-2-(4-hydroxyphenyl)ethyl)-5-(pyridin-4-ylmethyl)octahydrocyclo-penta[c]pyrrol-5-ol]	3150	–	–	–
CC(C)(O)c1ccc(C(O)CN2C[C@@H]3C[C@@](O)(c4ccccc4)C[C@@H]3C2)cc1 (mixture of isomers) [Example 69, rac-2-(2-hydroxy-2-(4-(2-hydroxypropan-2-yl)phenyl)ethyl)-5-phenyloctahydrocyclo-penta[c]pyrrol-5-ol]	≥ 10000	> 10000	–	–
Oc1ccc(C(O)CN2C[C@@H]3C[C@@](O)(c4cccnc4F)C[C@@H]3C2)nc1 (mixture of isomers) [Example 251, rac-(3aR,6aS)-5-(2-fluoropyridin-3-yl)-2-(2-hydroxy-2-(5-hydroxypyridin-2-yl)ethyl)octahydrocyclo-penta[c]pyrrol-5-ol]	≥ 10000	> 10000	–	–
OC(CN1C[C@@H]2C[C@@](O)(c3ccc(F)cc3)C[C@@H]2C1)c1ccc(Cl)cc1Cl (mixture of isomers) [Example 76, rac-2-[2-(2,4-dichlorophenyl)-2-hydroxyethyl]-5-(4-fluorophenyl)-octahydrocyclopenta[c] pyrrol-5-ol]	≥ 10000	> 10000	–	–
Oc1ccc(C(O)CN2C[C@H]3CC(Cc4ccccc4)C[C@H]3C2)cc1 (mixture of isomers) [Example 300, rac-4-(2-((3aR,6aS)-5-benzylhexahydrocyclo-penta[c]pyrrol-2(1H)-yl)-1-hydroxyethyl) phenol]	13.9	< 100	–	–
Oc1ccc(C(O)CN2C[C@@H]3C[C@@](O)(Cc4cccs4)C[C@@H]3C2)cc1 (mixture of isomers) [Example 204, rac-(3aR,5r,6aS)-2-(2-hydroxy-2-(4-hydroxyphenyl)ethyl)-5-(thiophen-2-ylmethyl)octahydrocyclo-penta[c]pyrrol-5-ol]	12.6	–	–	–
Oc1ccc(C(O)CN2C[C@@H]3C[C@@](O)(Cc4ccccc4Cl)C[C@@H]3C2)nc1 (mixture of isomers) [Example 246, rac-(3aR,5r,6aS)-5-(2-chlorobenzyl)-2-(2-hydroxy-2-(5-hydroxypyridin-2-yl)ethyl)octahydrocyclo-penta[c]pyrrol-5-ol]	50.3	–	–	–
Oc1cnc(C(O)CN2C[C@@H]3C[C@@](O)(Cc4ccccc4)C[C@@H]3C2)nc1 (mixture of isomers) [Example 203, rac-2-{2-[(3aR,5R,6aS)-5-benzyl-5-hydroxy-octahydrocyclopenta[c]pyrrol-2-yl]-1-hydroxyethyl}pyrimidin-5-ol]	3400	1000 to 10000	–	–
COc1cccc(NC(=O)N2C[C@@H]3C[C@@](O)(c4ccccc4C)C[C@@H]3C2)c1	≥ 10000	> 10000	–	–
CC(C(=O)c1ccc(O)cc1)N1C[C@H]2CC(Cc3ccccc3)C[C@H]2C1 (mixture of isomers) [Example 296, rac-2-((3aR,6aS)-5-benzylhexahydrocyclo-penta[c]pyrrol-2(1H)-yl)-1-(4-hydroxyphenyl)propan-1-one]	125	100 to 1000	–	–
Oc1ccc(C(O)CN2C[C@H]3CN(Cc4ccccc4)C[C@H]3C2)cc1 (mixture of isomers) [Example 327, rac-4-(2-(5-benzylhexahydropyrrolo [3,4-c]pyrrol-2(1H)-yl)-1-hydroxyethyl)phenol]	139	100 to 1000	–	–
CS(=O)(=O)Nc1ccc(C(O)CN2C[C@@H]3C[C@@](O)(Cc4ccccc4)C[C@@H]3C2)nc1 (mixture of isomers) [Example 236, rac-N-(6-(2-((3aR,5r,6aS)-5-benzyl-5-hydroxyhexahydrocyclo-penta[c]pyrrol-2(1H)-yl)-1-hydroxyethyl)pyridin-3-yl)methanesulfonamide]	114	–	–	–
CC(=O)Nc1ccc(C(O)CN2C[C@@H]3C[C@@](O)(Cc4ccccc4)C[C@@H]3C2)cc1 (mixture of isomers) [Example 149, rac-N-(4-(2-((3aR,5r,6aS)-5-benzyl-5-hydroxyhexahydrocyclo-penta[c]pyrrol-2(1H)-yl)-1-hydroxyethyl)phenyl)acet-amide]	2310	–	–	–
CC(C(=O)c1ccc(O)cc1)N1C[C@H]2CC(CCc3ccccc3)C[C@H]2C1 (mixture of isomers) [Example 322, rac-1-(4-hydroxy-phenyl)2-[(5R)-5-(2-phenylethyl)-octahydrocyclopenta[c]pyrrol-2-yl]propan-1-one]	–	–	100 to 1000	533
CC(C(=O)c1ccc(O)cc1)N1C[C@@H]2C[C@@](O)(c3ccc(F)cc3)C[C@@H]2C1 (mixture of isomers) [Example 92, rac-2-[5-(4-fluorophenyl)-5-hydroxy-octahydrocyclopenta[c]pyrrol-2-yl]-1-(4-hydroxyphenyl)propan-1-one]	≥ 10000	> 10000	–	–
OC(CN1C[C@@H]2C[C@@](O)(c3ccccc3)C[C@@H]2C1)c1ccccc1 (mixture of isomers) [Example 58, rac-2-(2-hydroxy-2-phenylethyl)-5-phenyloctahydrocyclo-penta[c]pyrrol-5-ol]	≥ 10000	> 10000	–	–
COc1cccc([C@]2(O)C[C@H]3CN(C(=O)Nc4cccnc4)C[C@H]3C2)c1 [Cmpd 46, 5-hydroxy-5-(3-methoxyphenyl)-N-(pyridin-3-yl)-octahydrocyclopenta[c] pyrrole-2-carboxamide]	–	> 10000	–	–

SMILES	IC50 [1] [nM]	IC50 [2] [nM]	IC50 (Binned Activity) [nM]	IC50 (NR2B NAM IC50) [nM]
CC(C(=O)c1ccc(O)cc1)N1C[C@@H]2C[C@](F)(Cc3ccccc3)C[C@@H]2C1 (mixture of isomers) [Example 317, rac-2-((3aR,5s,6aS)-5-benzyl-5-fluoro-hexahydrocyclopen-ta[c]pyrrol-2(1H)-yl)-1-(4-hydroxyphenyl)propan-1-one]	284	–	–	–
COc1cccc(C(O)CN2C[C@H]3C[C@@H](c4ccccc4)C[C@H]3C2)c1 (mixture of isomers) [Example 117, rac-1-(3-methoxyphenyl)-2-{5-phenyl-octahydrocyclopenta[c]pyrrol-2-yl}ethan-1-ol]	≥ 10000	> 10000	–	–
Oc1ccc(C(O)CN2C[C@@H]3C[C@](F)(Cc4ccccc4)C[C@@H]3C2)cc1 (mixture of isomers) [Example 311, rac-4-(2-((3aR,5s,6aS)-5-benzyl-5-fluorohexahydrocyclo-penta[c]pyrrol-2(1H)-yl)-1-hydroxyethyl) phenol]	448	100 to 1000	–	–
Cc1ccc(C[C@]2(O)C[C@H]3CN(CC(O)c4ccc(O)cc4)C[C@H]3C2)cc1 (mixture of isomers) [Example 182, rac-(3aR,5R,6aS)-2-[2-hydroxy-2-(4-hydroxyphenyl)ethyl]-5-[(4-methylphenyl)methyl]-octahydrocyclopenta[c] pyrrol-5-ol]	41.5	–	–	–
O=C1Cc2cc(C(O)CN3C[C@@H]4C[C@@](O)(Cc5ccccc5)C[C@@H]4C3)ccc2N1 (mixture of isomers) [Example 152, rac-5-(2-((3aR,5r,6aS)-5-benzyl-5-hydroxyhexahydrocyclo-penta[c]pyrrol-2(1H)-yl)-1-hydroxyethyl)indolin-2-one]	143	–	–	–
O=c1[nH]c2ccc(C(O)CN3C[C@@H]4C[C@@](O)(Cc5ccccc5)C[C@@H]4C3)cc2o1 (mixture of isomers) [Example 154, rac-6-(2-((3aR,5r,6aS)-5-benzyl-5-hydroxyhexahydrocyclo-penta[c]pyrrol-2(1H)-yl)-1-hydroxyethyl)benzo[d] oxazol-2(3H)-one]	52.4	–	–	–
CC(C)(C)C(=O)Nc1ccc(C(O)CN2C[C@@H]3C[C@@](O)(Cc4ccccc4)C[C@@H]3C2)cn1 (mixture of isomers) [Example 286, rac-N-(5-(2-(5-benzyl-5-hydroxyhexahydrocyclo-penta[c]pyrrol-2(1H)-yl)-1-hydroxyethyl)pyridin-2-yl)pivalamide]	≥ 10000	> 10000	–	–
Oc1ccc(C(O)CN2C[C@@H]3C[C@@](O)(Cc4ccccc4)C[C@@H]3C2)cc1 (mixture of isomers) [Example 131, rac-(3aR,5r,6aS)-5-benzyl-2-(2-hydroxy-2-(4-hydroxyphenyl)ethyl)octa-hydrocyclopenta[c]pyrrol-5-ol]	25.5	< 100	–	–
COc1ccccc1CNC(=O)N1C[C@@H]2C[C@@](O)(c3ccccc3)C[C@@H]2C1 [Example 21, 5-hydroxy-N-[(2-methoxyphenyl)methyl]-5-phenyl-octahydrocyclopenta[c] pyrrole-2-carboxamide]	–	> 10000	–	–
COc1cccc([C@]2(O)C[C@H]3CN(C(=O)Nc4cccc(Cl)c4)C[C@H]3C2)c1 [Example 15]	–	> 10000	–	–
Oc1c(F)cc(C(O)CN2C[C@@H]3C[C@@](O)(Cc4ccccc4)C[C@@H]3C2)cc1F (mixture of isomers) [Example 160, rac-(3aR,5r,6aS)-5-benzyl-2-(2-(3,5-difluoro-4-hydroxyphenyl)-2-hydroxyethyl)octahydro-cyclopenta[c]pyrrol-5-ol]	98.1	–	–	–
COc1ccc(C[C@]2(O)C[C@H]3CN(CC(O)c4ccc(O)cc4)C[C@H]3C2)cc1 (mixture of isomers) [Example 189, rac-(3aR,5r,6aS)-2-(2-hydroxy-2-(4-hydroxyphenyl)ethyl)-5-(4-methoxy-benzyl)octahydro-cyclopenta[c]pyrrol-5-ol]	47.4	–	–	–
CO[C@@]1(Cc2ccccc2)C[C@H]2CN(CC(O)c3ccc(O)c(F)n3)C[C@H]2C1 (mixture of isomers) [Example 198, rac-6-(2-((3aR,5r,6aS)-5-benzyl-5-methoxyhexahydrocyclo-penta[c]pyrrol-2(1H)-yl)-1-hydroxyethyl)-2-fluoropyridin-3-ol]	476	–	–	–
CC(C(=O)c1ccc(O)cc1)N1C[C@@H]2C[C@@](O)(CCc3ccccc3)C[C@@H]2C1 (mixture of isomers) [Example 319, rac-2-(5-hydroxy-5-phenethylhexa-hydrocyclo-penta[c]pyrrol-2(1H)-yl)-1-(4-hydroxyphenyl)propan-1-one]	497	–	–	–
COc1cccc(NC(=O)N2C[C@@H]3C[C@@](O)(c4ccc(F)cc4)C[C@@H]3C2)c1 [Example 37]	–	> 10000	–	–
CC(C(=O)c1ccc(O)cc1)N1C[C@@H]2C[C@@](O)(Cc3ccccc3)C[C@@H]2C1 (mixture of isomers) [Example 293, rac-2-((3aR,5r,6aS)-5-benzyl-5-hydroxyhexahydrocyclo-penta[c]pyrrol-2(1H)-yl)-1-(4-hydroxyphenyl)propan-1-one]	100	–	–	–
